Laboratory results taken from patent US8304438B2, “Heteroarylacrylamides and their use as pharmaceuticals” (Sanofi, priority 2006, dated 2012).
Counter-ions that a name gives are not always drawn.

system: eNOS promoter; assay: Activation of eNOS transcription (eNOS promoter firefly luciferase reporter gene assay); assay type: cell-based; settings: human endothelial cell line stable transfected with eNOS promoter-luciferase construct; 18 h incubation; EC50 determined graphically; read-out: EC50 values of transcription induction ratios (TIR)
Procedure: Activation of eNOS transcription was measured as described in detail by L^1 et al., “Activation of protein kinase C alpha and/or epsilon enhances transcription of the human endothelial nitric oxide synthase gene”, Mol. Pharmacol. 53 (1998) 630. Briefly, a 3.5 kB long fragment 5′ of the starting codon of the eNOS gene was cloned, sequenced and cloned in firefly luciferase expression plasmids to monitor activation of the eNOS promoter by reporter gene activity. A human endothelial cell line stable transfected and expressing this promoter-reporter construct was used for compound testing. Cells were incubated for 18 h with the compounds.
All compounds were dissolved in sterile dimethyl sulfoxide (DMSO). A final concentration of 0.5% DMSO in complete medium was allowed. Induction of reporter gene expression in these cells was measured using a standard luciferase assay system (Promega, Cat. No. E150) according to the manufacturer's instructions. Luciferase induction in cells incubated with compounds were compared to those incubated with solvent alone. The ratio of both activities (transcription induction ratio, TIR) was plotted as a function of compound concentration. Typically, TIR values started at low concentrations at a ratio of 1, indicating no compound effect, and extended up to a maximum TIR value TIR(max) which indicates the increase of the eNOS transcription. EC50 values of transcription induction ratios as a function of compound concentration were determined graphically.

SMILES	EC50 [nM]
O=C(/C=C/c1nc(-c2ccc(F)cc2)cs1)Nc1ccccn1 [Example 116, 3-[4-(4-Fluoro-phenyl)-thiazol-2-yl]-N-(pyridin-2-yl)-acrylamide]	500 to 5000
C/C(=C\C(=O)N1CCCCC1)c1cc(-c2ccccc2F)cs1 [Example 123, 3-[4-(2-Fluoro-phenyl)-thiophen-2-yl]-1-(piperidin-1-yl)-but-2-en-1-one]	500 to 5000
O=C(/C=C/c1cnc2ccccc2c1)N1CCCCC1 [Example 1, 1-(Piperidin-1-yl)-3-(quinolin-3-yl)-propenone]	500 to 5000
O=C(/C=C/c1ccc(Oc2ccc(F)cc2)nc1)N1CCCCC1 [Example 76, 3-[6-(4-Fluoro-phenoxy)-pyridin-3-yl]-1-(piperidin-1-yl)-propenone Trifluoroacetic Acid Salt]	500 to 5000
O=C(/C=C/c1ccc(-c2cc3ccccc3s2)nc1)N1CCCCC1 [Example 125, 3-(6-(Benzo[b]thiophen-2-yl)-pyridin-3-yl)-1-(piperidin-1-yl)-propenone]	500 to 5000

Continued, values first:

EC50 [nM]	SMILES
500 to 5000	O=C(/C=C/c1ccc(-c2ccccc2F)s1)Nc1ccccc1 [Example 150, 3-[5-(2-Fluoro-phenyl)-thiophen-2-yl]-N-phenyl-acrylamide]
< 500	O=C(/C=C/c1cc(-c2ccccc2F)cs1)N1CCCCC1 [Example 15, 3-[4-(2-Fluoro-phenyl)-thiophen-2-yl]-1-(piperidin-1-yl)-propenone]
500 to 5000	O=C(/C=C/c1ccc(-c2ccccc2OC(F)(F)F)o1)N1CCCCC1 [Example 13, 1-(Piperidin-1-yl)-3-[5-(2-trifluoromethoxy-phenyl)-furan-2-yl]-propenone]
< 500	CC(C)(C)NC(=O)/C=C/c1nc(-c2ccc(F)cc2)cs1 [Example 146, N-tert-Butyl-3-[4-(4-fluoro-phenyl)-thiazol-2-yl]-acrylamide]
< 500	C/C(=C\C(=O)N(C)C)c1ccc(-c2ccccc2F)nc1 [Example 110, 3-[6-(2-Fluoro-phenyl)-pyridin-3-yl]-but-2-enoic Acid Dimethylamide Trifluoroacetic Acid Salt]
< 500	CC(C)N(C(=O)/C=C/c1nc(-c2ccc(F)cc2)cs1)C(C)C [Example 145, 3-[4-(4-Fluoro-phenyl)-thiazol-2-yl]-N,N-diisopropyl-acrylamide]
